Here are results for 1 molecule from patent EP4755880A1, “SUBSTITUTED NITROGEN-CONTAINING BICYCLIC COMPOUND AND USE THEREOF” (Sunshine Lake Pharma Co., Ltd., priority 2023, dated 2025).

A short description of data set [1]: in vivo. To be noted: SD, rat.
Procedure: (§1) The compounds of the present invention were administered to test animals in the form of 5% DMSO + 30% PEG400 + 65% physiological saline, 10% DMSO + 10% Kolliphor HS15 + 80% Saline, 10% DMSO + 89% (25% SBE-B-CD) + (2% HCl), 20% PEG400 + 80% sterile water for injection, or 10% DMA+ 10% HS15 + 30% PEG400 + 50% sterile aqueous solution for injection. Animals were fasted for 12 hours before administration but had free access to water. For the intravenous administration group, the dose was 1 mg/kg. Blood samples (approximately 0.15 mL) were collected intravenously at the following time points after administration: 0.083, 0.25, 0.5, 1.0, 2.0, 4.0, 6.0, 8.0 and 24 h (dogs) or 0.083, 0.25, 0.5, 1.0, 2.0, 5.0, 7.0 and 24 h (mice and rats) or 0.083, 0.25, 0.5, 1.0, 2.0, 6.0, 8.0 and 24 h (monkeys). EDTA-K2 was pre-added to the blood collection tube as an anticoagulant. The blood samples were centrifuged at 12,000 rpm for 2 minutes, and plasma was collected and stored at -20 °C or - 70 °C. For the gavage administration group, the dosage was 1 mg/kg (mice, dogs, and monkeys) or 5 mg/kg (rats). After administration, venous blood samples (approximately 0.15 mL) were collected at the following time points: 0.25, 0.5, 1.0, 2.0, 4.0, 6.0, 8.0, and 24 h (dogs) or 0.25, 0.5, 1.0, 2.0, 5.0, 7.0, and 24 h (mice and rats) or 0.25, 0.5, 1.0, 2.0, 6.0, 8.0, and 24 h (monkeys). EDTA-K2 was pre-added to the blood collection tube as an anticoagulant. The blood samples were centrifuged at 12,000 rpm for 2 minutes, and plasma was collected and stored at -20 °C or -70 °C.
(§2) The collected plasma samples were processed (frozen plasma was thawed at room temperature, vortexed for 15 s to mix, 10-20 µL of plasma was taken, 120-150 µL of acetonitrile solution containing internal standard was added, vortexed for 5 min to mix, centrifuged at 4,000 rpm for 5 min, 100 µL of supernatant was taken, and 120-150 Ml/water (v/v = 1/1) was added and mixed). The concentration of compounds in the plasma was then analyzed by LC-MS/MS.
Table D Pharmacokinetic parameters of compounds of the present invention in SD rats
Data set [2] has as its system MDA-MB-436 cells. Nature of the data set: Inhibition of proliferation of MDA-MB-436 cells (CellTiter-Glo). The settings on record: Homo sapiens, MDA-MB-436, 168 h, 7 days incubation. In kind it is cell-based. In short, it runs like this: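 MDA-MB-436 cells seeded at 500-1000 cells/well, allowed to attach overnight, then treated with 9 concentrations from 10000 to 0.152 nM final (4-fold steps) in triplicate for 7 days at 37°C, 5% CO2. Viability by CellTiter-Glo luminescence; IC50 from fitted curve.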
A general note: ATP-based viability assays read luminescence as a measure of living cells.

Data set [3] concerns DLD-1 BRCA2(-/-) cells. Put plainly: Inhibition of proliferation of DLD-1 BRCA2(-/-) cells (CTG method). The settings on record: Homo sapiens, DLD-1, 168 h; 7 days incubation, CellTiter-Glo. In kind it is cell-based. In short, it runs like this:
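DLD-1 BRCA2(-/-) cells, 1,000 per well, attached overnight, then exposed to compound at final 10000 to 0.152 nM (4-fold series) in triplicate for 7 days at 37 °C, 5% CO2. Viability by CellTiter-Glo luminescence; IC50 for proliferation inhibition from a fitted curve.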

The nature of data set [4]: in vivo. The settings on record: BALB/c, mouse.
Procedure: as §1, §2

Consider `CC#Cc1cc(CN2CC=C(c3ccc(C(=O)NC)nc3F)CC2)cc2[nH]c(=O)c(C)nc12` [Example 12, 2-fluoro-N-methyl-1'-((2-methyl-3-oxo-8-(prop-1-yn-1-yl)-3,4-dihydroquinoxalin-6-yl)methyl)-1',2',3',6'-tetrahydro-[3,4'-bipyridine]-6-carboxamide], for which the AUC(0-t) in data set [1] (iv, 1 mg/kg) was 1260 ng·h/mL; in data set [1] (po, 5 mg/kg), 3770 ng·h/mL; in data set [4] (iv, 2 mg/kg), 1430 ng·h/mL; in data set [4] (po, 5 mg/kg) it was 4200 ng·h/mL. Further, the Cmax came to 897 ng/mL in data set [1] (iv, 1 mg/kg); 922 ng/mL in data set [1] (po, 5 mg/kg); 1630 ng/mL in data set [4] (iv, 2 mg/kg); 2110 ng/mL in data set [4] (po, 5 mg/kg). The half-life in data set [1] (iv, 1 mg/kg) was 2 h; in data set [1] (po, 5 mg/kg) it was 2.4 h; in data set [4] (iv, 2 mg/kg), 1.4 h; in data set [4] (po, 5 mg/kg), 1.9 h. The half-inhibitory concentration (IC50) turned out to be 0.6 nM in data set [2] and 1.9 nM in data set [3].

The AUC(0-t) is the area under the concentration-time curve up to a stated or last time point. A word on the Cmax: it is the highest concentration seen after dosing. What is called half-life is how long it takes for the measured level to halve. Lower therefore signals fast loss. As usually defined, the IC50 is the midpoint of a concentration-inhibition curve. Low values mean greater potency in that assay, high ones weaker potency in that assay.
